# In paper PMC11400957 (The Journal of Biological Chemistry, 2024):
# Target: IpaD^WT (full-length) (Shigella flexneri, UniProt P18013)
# Experiment: CD thermal unfolding at […] nm
# Type: binding
# Details: 1 mM DOC, PBS pH 7.4, 0.5 mg/ml protein; absolute Tm with ligand, not a shift; nonspecific detergent effect not excluded
# Sequence of IpaD^WT (full-length) (P18013 whole entry): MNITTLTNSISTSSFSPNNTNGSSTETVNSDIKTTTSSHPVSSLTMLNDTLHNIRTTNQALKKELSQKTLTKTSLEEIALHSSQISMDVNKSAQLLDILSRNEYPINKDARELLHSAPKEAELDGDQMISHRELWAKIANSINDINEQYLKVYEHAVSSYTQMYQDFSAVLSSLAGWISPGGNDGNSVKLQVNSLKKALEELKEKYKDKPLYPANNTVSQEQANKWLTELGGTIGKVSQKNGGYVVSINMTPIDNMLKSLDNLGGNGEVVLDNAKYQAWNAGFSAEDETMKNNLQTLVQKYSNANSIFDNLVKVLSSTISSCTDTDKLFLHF
structure (smiles),measurement,value
C[C@H](CCC(=O)O)[C@H]1CC[C@H]2[C@@H]3CC[C@@H]4C[C@H](O)CC[C@]4(C)[C@H]3C[C@H](O)[C@]12C [deoxycholate],Tm ^b (°C ± SD) / +DOC,77 ± 1 °C
